In brackets after ≈: the same amount, converted by molar mass. Like-named read-outs stand apart in the source and are kept apart here.
Legend:
[1] = system: Trichophyton mentagrophytes; assay: Inhibition of dermatophytes; format: cell-based; conditions: T. mentagrophytes, 96 hours, 13 isolates
Experimental: (§1) The in vitro activity of formula (I) against the dermatophytes Trichophyton rubrum, Trichophyton mentagrophytes, and Epidermophyton floccosum was measured. The data were collected after incubating for 96 hours.

Trichophyton rubrum = assay: Inhibition of dermatophytes; format: cell-based; conditions: T. rubrum, 96 hours, 10 isolates
Experimental: as §1

Epidermophyton floccosum = assay: Inhibition of dermatophytes; format: cell-based; conditions: E. floccosum, 96 hours, 1 isolate
Experimental: as §1

A. fumigatus = assay: Inhibition of Aspergillus spp. culture (broth microdilution, XTT); format: cell-based, Aspergillus fumigatus (strain ATCC#8001); conditions: 48 hours at 37° C.
Experimental: (§2) Formulae (i) was isolated as described in Example 1. Plant material was collected in Zimbabwe. A voucher specimen is deposited at the Institute of Pharmacognosy and Phytochemistry, University of Lausanne, Lausanne, Switzerland. Antimicrobial assays are performed by a modification of the broth microdilution susceptibility assay using the tetrazolium salt XTT (Examples 2-6, see summary of results in Table 1 below).
Aspergillus fumigatus (strain ATCC#8001) was subcultured from a refrigerated potato dextrose agar slant (immersed in mineral oil) onto a fresh potato dextrose agar slant. After 72 hours of incubation at 37° C., the slants were filled with 7 mL sterile, cold, distilled water and put on ice for 2 hours. After disrupting the tissue, spores were filtered through sterile gauze using a 30 cc syringe. The resulting mixture was centrifuged for 10 minutes at 2,000 rpm. The supernatant was discarded and the pellet was resuspended in 5 mL sterile, distilled water. […] Growth was assessed spectrophotometrically by measuring the appearance of soluble formazan stain at 450/650 nm using an Emax micro plate reader. Validation of the assay was confirmed by determination of the A. fumigatus minimum inhibitory concentration (MIC) for amphotericin B. MICs were also scored visually.

C. albicans = assay: Inhibition of Candida spp. culture (broth microdilution, XTT); format: cell-based, Candida albicans (strain ATCC #90028); conditions: for minimum inhibitory concentration (MIC) for known antifungal agents: assay validation, result in words
Experimental: as §2
(§3) Candida albicans (strain ATCC #90028), Candida krusei (strain ATCC #90030), and Torulopsis (Candida) glabrata (strain ATCC #6258) were subcultured from cryopreserved stocks onto sabourand dextrose agar plates. Blastoconidia were suspended into RPMI-MOPS (media) and inoculated (500 CFW/well) into 96-well plates containing test compounds in a final volume of 100 μL/well. After 22 hours at 35° C., 25 μL of XTT (2,3-bis(2-methoxy-4-nitro-5-sulfophenyl)-5-[(phenylamino)carbonyl]-2H-tetrazolium hydroxide), (100 μg/mL) with PMS (phenazine methyl sulfate, 5 μM) were added to each well, followed by 2 hours of shaking. Growth was assessed spectrophotometrically by measuring the appearance of soluble formazan stain at 450 nm using an Emax microplate reader.

S. aureus = assay: Inhibition of Staphylococcus aureus culture; format: cell-based; conditions: 24 hours at 35° C.
Experimental: as §2
Strains of Staphylococcus aureus were subcultured from cryopreserved stocks onto sheep blood agar plates (methicillin-sensitive reference strain ATCC #29213. Methicillin-resistant (MRSA) clinical isolate was obtained from Dr. Gary Doern, Director of Clinical Microbiology, University of Massachusetts Medical Center, Worcester, Mass.). Bacteria were suspended in Mueller Hinton broth and inoculated (5×10^4 CFU/well) into 96-well plates containing test compounds in a final volume of 100 μL/well. After 24 hours at 35° C., plates were shaken for 1 minute and turbidity was read manually at 650 nm using a Emax microplate reader (Molecular Devices, Sunnyvale, Calif. The MIC values of vancomycin and gentamicin in this screening assay are determined to be approximately 1 μg/mL and 0.6 μg/mL, respectively, well within the reported ranges (National Committee on Clinical Laboratory Standards Vol. 14, No. 16, 1994, Table 3).

T. glabrata = assay: Inhibition of Candida spp. culture (broth microdilution, XTT); format: cell-based, Torulopsis (Candida) glabrata (strain ATCC #6258); conditions: Nakaseomyces glabratus, 22 hours at 35° C.
Experimental: as §2, §3

Vero cell proliferation = format: cell-based; conditions: monkey, vero cells; read-out: IC50 (Vero cell proliferation)
Text: Formula (ii) compounds are those compounds of formula (I) wherein R13 is --O--bonded to R14 and R14 is --CHORa --, Ra being hydrogen, C1-4 alkyl, or formula (a). Formula (ii) compounds may be obtained according to Example 7. […] In general, inhibition of a microbial infection means inhibiting microbial growth, relative to an untreated control, by at least 30%, and preferably by 50% or 75%. Cytotoxicity assays utilized the same dye as a marker of cell viability.

C. krusei = assay: Inhibition of Candida spp. culture (broth microdilution, XTT); format: cell-based, Candida krusei (strain ATCC #90030); conditions: Pichia kudriavzevii, 22 hours at 35° C.
Experimental: as §2, §3

[2] = system: Candida albicans strain # 64; assay: In vivo efficacy against fluconazole-sensitive candidiasis in mice; parameters: species or system ICR mice infected with Candida albicans
Experimental: Immunocompetent mice (ICR, Sprague-Dawley, Indianapolis, IN) were infected with a pathogenic strain (# 64) of Candida albicans which is sensitive to fluconazole. After 24 hours, dissemination of infection was shown by organ colony counts (kidney, spleen, and liver) greater than 10^5 CFU. Treatment began 24 hours after infection with the indicated dosage once a day for 10 days. One group received 20 mg/kg of the compound administered via oral gavage in 0.1 mL. The test compound was formulated in 40% polyethyleneglycol (MW 400). Another group received 40 mg/kg of th compound, administered as above. A third group received polyethylene glycol, and the last group received fluconazole dosed orally at 40 mg/kg twice a day.
After 30 days the percent survival in the group treated with fluconazole and the group treated with test compound (40 mg per kg body weight, twice a day) was measured. In addition, the organ fungal load was measured at days 1, 10, and 30.

[3] = Candida albicans, 22 hours at 35° C.
[4] = Staphylococcus aureus, read-out: MIC

For `CC1=C(CCO)C(=O)C(O)=C2C1=CC(=O)[C@@H]1C(C)(C)CCC[C@@]21C` (relative stereo) [Formula (i), (4bR*,8aR*)-4b,5,6,7,8,8a-hexahydro-4-hydroxy-4b,8,8,1-tetramethyl-2-(2-hydroxy-ethyl) -3,9-phenanthrenedione], the MIC ([1]; read-out: MIC range) was 0.5 to 8 µg/mL, the MIC ([1]; read-out: average MIC) was 2.7 µg/mL and the MIC (Trichophyton rubrum; read-out: MIC range) was 2 to 8 µg/mL. It also gave an MIC (Trichophyton rubrum; read-out: average MIC) of 5 µg/mL, an MIC (Epidermophyton floccosum) of 4 µg/mL and an IC50 (A. fumigatus) of 6.49 µg/mL. It also gave an MIC (A. fumigatus) of 6.25 µg/mL, an IC50 (C. albicans; [3]) of 0.12 µg/mL and an MIC (C. albicans; [3]) of 0.78 µg/mL. For the same molecule, the MIC (S. aureus; [4]) was 1.56 µg/mL, the IC50 (T. glabrata) was 0.44 µg/mL and the MIC (T. glabrata) was 1.65 µg/mL. The CC50 (Vero cell proliferation) was 12.7 µg/mL, the IC50 (C. krusei) was 0.55 µg/mL and the MIC (C. krusei) was 1.56 µg/mL.
For `CC1=C(CCO)C(=O)C(O)=C2C1=CC(=O)[C@H]1C(C)(C)CCC[C@]21C` (relative stereo) [test compound], the “dose response of the effect” value ([2]; 20 and 40 mg/kg oral gavage) was “dose-responsive”, the “fungal organ burdens in the kidney, liver, and spleen” value ([2]; after 10 days, either concentration of the test compound, vs mice treated with fluconazole) was “less than or equal to one half the burdens in the same organs of mice treated with fluconazole” and the median survival ([2]; oral gavage once a day for 10 days, vehicle control 7 days, p=0.0018 log rank test) was 17.5 days.
In the case of `Nc1nc(=O)[nH]cc1F` [5-flucytosine], the “minimum inhibitory concentration (MIC) for known antifungal agents” value (from here on “minimum inhibitory concentration (MIC)”) (C. albicans) is reported as “within reported ranges”.
For `C[C@@H]1[C@H](O)[C@@H](C)/C=C/C=C/C=C/C=C/C=C/C=C/C=C/[C@H](O[C@@H]2O[C@H](C)[C@@H](O)[C@H](N)[C@@H]2O)C[C@@H]2O[C@](O)(C[C@@H](O)C[C@@H](O)[C@H](O)CC[C@@H](O)C[C@@H](O)CC(=O)O[C@H]1C)C[C@H](O)[C@H]2C(=O)O` [amphotericin B], the “minimum inhibitory concentration (MIC)” value (C. albicans) was “within reported ranges”.
With `OC(Cn1cncn1)(Cn1cncn1)c1ccc(F)cc1F` [fluconazole] the “minimum inhibitory concentration (MIC)” value (C. albicans) was “within reported ranges”.
In the case of `C[C@@H]([C@H](N)C(=O)N[C@H](C(=O)O)[C@H]1O[C@@H](n2ccc(=O)[nH]c2=O)[C@H](O)[C@@H]1O)[C@H](O)c1ccc(O)cn1` [nikkomycin Z], the “minimum inhibitory concentration (MIC)” value (C. albicans) is reported as “within reported ranges”.
In the case of `NC(=O)OC[C@H](O)[C@@H](O)[C@H](N)C(=O)N[C@H](C(=O)O)[C@H]1O[C@@H](n2cc(C(=O)O)c(=O)[nH]c2=O)[C@H](O)[C@@H]1O` [polyoxin D], the “minimum inhibitory concentration (MIC)” value (C. albicans) is reported as “within reported ranges”.
For `CN[C@H](CC(C)C)C(=O)N[C@H]1C(=O)N[C@@H](CC(N)=O)C(=O)N[C@H]2C(=O)N[C@H]3C(=O)N[C@H](C(=O)N[C@H](C(=O)O)c4cc(O)cc(O)c4-c4cc3ccc4O)[C@H](O)c3ccc(c(Cl)c3)Oc3cc2cc(c3O[C@@H]2O[C@H](CO)[C@@H](O)[C@H](O)[C@H]2O[C@H]2C[C@](C)(N)[C@H](O)[C@H](C)O2)Oc2ccc(cc2Cl)[C@H]1O` [vancomycin], the MIC (S. aureus; [4]) was roughly 1 µg/mL (≈ 0.69 µM).
gentamicin gave an MIC (S. aureus) of roughly 0.6 µg/mL.
